The results in this text go back to patent US10954253B2, “1,2-dihydro-3H-pyrazolo[3,4-d]pyrimidin-3-one derivative as Wee1 inhibitor” (SHIJIAZHUANG SAGACITY NEW DRUG DEVELOPMENT CO., LTD., priority 2017, dated 2021).

Chain of Wee1 (P30291 whole entry): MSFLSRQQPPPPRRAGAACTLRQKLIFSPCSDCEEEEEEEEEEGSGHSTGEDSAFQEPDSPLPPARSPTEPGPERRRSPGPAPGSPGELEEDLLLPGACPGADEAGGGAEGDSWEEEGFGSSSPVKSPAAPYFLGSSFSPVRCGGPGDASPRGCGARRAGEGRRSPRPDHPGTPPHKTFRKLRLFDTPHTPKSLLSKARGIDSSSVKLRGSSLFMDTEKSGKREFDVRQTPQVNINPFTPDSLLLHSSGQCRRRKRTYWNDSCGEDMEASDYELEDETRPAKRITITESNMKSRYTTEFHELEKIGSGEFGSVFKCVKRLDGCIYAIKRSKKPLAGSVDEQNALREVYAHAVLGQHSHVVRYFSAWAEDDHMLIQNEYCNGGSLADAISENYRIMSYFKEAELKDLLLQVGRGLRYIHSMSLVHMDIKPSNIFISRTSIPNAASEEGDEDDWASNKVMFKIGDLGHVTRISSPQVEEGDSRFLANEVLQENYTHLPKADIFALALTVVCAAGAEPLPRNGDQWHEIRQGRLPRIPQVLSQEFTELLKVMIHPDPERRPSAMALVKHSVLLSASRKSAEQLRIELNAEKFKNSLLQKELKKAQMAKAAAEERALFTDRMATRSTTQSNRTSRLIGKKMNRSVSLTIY

This test has as its target Wee1 (Homo sapiens (Human), UniProt P30291). As to the kind of experiment: In vitro enzymatic inhibitory activity (33P-ATP filter-binding kinase assay, MBP substrate). It is filed as biochemical. Conditions: Wee-1 150 nM, MBP 20 μM. How it is done: The compounds of the present invention for experimental use were all self-prepared, and their chemical names and structural formulas are shown in the preparation embodiments of the respective compounds. The experimental tests were carried out in Reaction Biology Corporation, USA, and the experimental results were provided by the company. Basic reaction buffer: 20 mM hydroxyethylpiperazine ethanesulfuric acid (pH 7.5), 10 mM magnesium chloride, 1 mM EGTA, 0.02% Brij35, 0.02 mg/mL bovine serum albumin, 0.1 mM Na3VO4, 2 mM DTT, 1% DMSO Enzyme: Wee-1 concentration is 150 nM Matrix: MBP concentration is 20 μM The tested compound was formulated into a 5 mM solution with 100% DMSO, and a 10 points 3-fold gradient dilution was performed with DMSO through an automated pipetting station epMotion 5070. 1. Fresh matrix configuration reaction buffer was prepared; 2. The Wee-1 was added into the matrix solution and shaked gently; 3. DMSO solution of the compound were added into the kinase reaction mixture using an acoustic technique (Echo 550; nanoliter range) and incubated for 20 minutes at room temperature; 4. ^33P-ATP (specific activity, 10 μCi/μL) was added into the reaction mixture to stimulate the reaction; 5. Incubated for 2 hours at room temperature; 6. Kinase activity was detected by filter-binding method.
Turning to `C=CCn1c(=O)c2cnc(Nc3ccc(N4CCC5(CCN(C)CC5)CC4)cc3)nc2n1-c1ccc(F)cn1` [Embodiment 28, 2-allyl-1-(5-fluoropyridin-2-yl)-6-((4-(9-methyl-3,9-diazaspiro[5.5]undecan-3-yl)phenyl)amino)-1H-pyrazolo[3,4-d]pyrimidin-3(2H)-one], the IC50 (as a rule, the concentration at which inhibition is half-maximal) was found to be 13.2 nM.

The molecule `C=CCn1c(=O)c2cnc(Nc3ccc(N4CCC5(CCN(C(=O)OC)CC5)CC4)cc3)nc2n1-c1cccc(C(C)(C)O)n1` [Embodiment 31, methyl-9-(4-((2-allyl-1-(6-(2-hydroxypropan-2-yl)pyridin-2-yl)-3-oxo-2,3-dihydro-1H-pyrazolo[3,4-d]pyrimidin-6-yl)amino)phenyl)-3,9-diazaspiro[5.5]undecan-3-ethyl carboxylate] yielded an IC50 of 15 nM.

The molecule `C=CCn1c(=O)c2cnc(Nc3ccc(N4CCC5(CCN(C)CC5)CC4)c(F)c3)nc2n1-c1cccc(C(C)(C)O)n1` [Embodiment 34, 2-allyl-6((3-fluoro-4-(9-methyl-3,9-diazaspiro[5.5]undecan-3-yl)phenyl)amino)-1-(6-(2-hydroxypropan-2-yl)pyridin-2-yl)-1H-pyrazolo[3,4-d]pyrimidin-3(2H)-one] returned an IC50 of 120 nM.

Turning to `C=CCn1c(=O)c2cnc(Nc3ccc(N4CCC5(CCN(C)CC5)CC4)cc3C)nc2n1-c1cccc(C(C)(C)O)n1` [Embodiment 35, 2-allyl-1-(6-(2-hydroxypropan-2-yl)pyridin-2-yl)-6((2-methyl-4-(9-methyl-3,9-diazaspiro[5.5]undecan-3-yl)phenyl)amino)-1H-pyrazolo[3,4-d]pyrimidine-3(2H)-one], the IC50 was determined as 241 nM.

As for `C=CCn1c(=O)c2cnc(Nc3ccc(N4CCC5(CCN(C)CC5)CC4)c(C)c3)nc2n1-c1cccc(C(C)(C)O)n1` [Embodiment 36, 2-allyl-1-(6-(2-hydroxypropan-2-yl)pyridin-2-yl)-6((3-methyl-4-(9-methyl-3,9-diazaspiro[5.5]undecan-3-yl)phenyl)amino)-1H-pyrazolo[3,4-d]pyrimidine-3(2H)-one], the IC50 came to 57.1 nM.

Regarding `C=CCn1c(=O)c2cnc(Nc3ccc(N4CCC5(CCN(C)CC5)CC4)cc3OC)nc2n1-c1cccc(C(C)(C)O)n1` [Embodiment 37, 2-allyl-1-(6-(2-hydroxypropan-2-yl)pyridin-2-yl)-6((2-methoxy-4-(9-methyl-3,9-diazaspiro[5.5]undecan-3-yl)phenyl)amino)-1H-pyrazolo[3,4-d]pyrimidin-3(2H)-one], the IC50 came to 328 nM.

`C=CCn1c(=O)c2cnc(Nc3ccc(N4CCC5(CCN(C)CC5)CC4)c(OC)c3)nc2n1-c1cccc(C(C)(C)O)n1` [Embodiment 38, 2-allyl-1-(6-(2-hdyroxypropan-2-yl)pyridin-2-yl)-6((3-methoxy-4-(9-methyl-3,9-diazaspiro[5.5]undecan-3-yl)phenyl)amino)-1H-pyrazolo[3,4-d]pyrimidine-3(2H)-one]: the IC50 was found to be 20.7 nM.

For the molecule `C=CCn1c(=O)c2cnc(Nc3ccc(N4CCC5(CCN(C)CC5)CC4)cc3)nc2n1-c1cccc(C2(O)CCC2)n1` [Embodiment 40, 2-allyl-1-(6-(1-hydroxycyclobutyl)pyridin-2-yl)-6-((4-(9-methyl-3,9-diazaspiro[5.5]undecan-3-yl)phenyl)amino)-1H-pyrazolo[3,4-d]pyrimidin-3(2H)-one], the IC50 was 30.7 nM.

On to `C=CCn1c(=O)c2cnc(Nc3ccc(N4CCC5(CCN(C)CC5)CC4)cc3)nc2n1-c1cccc(C(C)(O)C(F)(F)F)n1` (stereo not drawn) [Embodiment 41, 2-allyl-6-((4-(9-methyl-3,9-diazaspiro[5.5]undecan-3-yl)phenyl)amino)-1-(6-(1,1,1-trifluoro-2-hydroxypropan-2-yl)pyridin-2-yl)-1H-pyrazolo[3,4-d]pyrimidin-3(2H)-one], for which the IC50 was 13.1 nM.

For `C=CCn1c(=O)c2cnc(Nc3ccc(N4CCC5(CCN(C)CC5)CC4)cc3)nc2n1-c1cccc(C2(O)COC2)n1` [Embodiment 42, 2-allyl-1-(6-(3-hydroxyoxetan-3-yl)pyridin-2-yl)-6-((4-(9-methyl-3,9-diazaspiro[5.5]undecan-3-yl)phenyl)amino)-1H-pyrazolo[3,4-d]pyrimidin-3(2H)-one], the IC50 was 17.4 nM.

In turn, `C=CCn1c(=O)c2cnc(Nc3ccc(N4CCC5(CCN(C)CC5)CC4)cc3)nc2n1-c1cccc(N2CCCC2=O)n1` [Embodiment 44] displayed an IC50 of 12.6 nM.

In turn, `C=CCn1c(=O)c2cnc(Nc3ccc(N4CCC5(CCN(C)CC5)CC4)cc3)nc2n1-c1cccc(C2CC2)n1` [Embodiment 45, 2-allyl-1-(6-cyclopropylpyridin-2-yl)-6-((4-(9-methyl-3,9-diazaspiro[5.5]undecan-3-yl)phenyl)amino)-1H-pyrazolo[3,4-d]pyrimidin-3(2H)-one] showed an IC50 of 7.4 nM.

On to `C=CCn1c(=O)c2cnc(Nc3ccc(N4CCC5(CCN(C)CC5)CC4)cc3)nc2n1-c1cccc(C(F)(F)F)n1` [Embodiment 46, 2-allyl-6-((4-(9-methyl-3,9-diazaspiro[5.5]undecane-3-yl)phenyl)amino)-1-(6-(trifluoromethyl)pyridin-2-yl)-1H-pyrazolo[3,4-d]pyrimidine-3(2H)-one], for which the IC50 turned out to be 44.6 nM.

Turning to `C=CCn1c(=O)c2cnc(Nc3ccc(N4CCC5(CCN(C)CC5)CC4)cc3)nc2n1-c1cccc(OC)n1` [Embodiment 47, 2-allyl-1-(6-methoxypyridin-2-yl)-6-((4-(9-methyl-3,9-diazaspiro[5.5]undecan-3-yl)phenyl)amino)-1H-pyrazolo[3,4-d]pyrimidin-3(2H)-one], the IC50 came out at 3 nM.

In the case of `C=CCn1c(=O)c2cnc(Nc3ccc(N4CCC5(CCN(C)CC5)CC4)cc3)nc2n1-c1cccc(OC(C)C)n1` [Embodiment 48, 2-allyl-1-(6-isopropoxypyridin-2-yl)-6-((4-(9-methyl-3,9-diazaspiro[5.5]undecan-3-yl)phenyl)amino)-1H-pyrazolo[3,4-d]pyrimidin-3(2H)-one], the IC50 is 6.3 nM.

Consider `C=CCn1c(=O)c2cnc(Nc3ccc(N4CCC5(CCN(C)CC5)CC4)cc3)nc2n1-c1cccc(C(C)(F)F)n1` [Embodiment 49, 2-allyl-1-(6-(1,1-difluoroethyl)pyridin-2-yl)-6-((4-(9-methyl-3,9-diazaspiro[5.5]undecan-3-yl)phenyl)amino)-1H-pyrazolo[3,4-d]pyrimidin-3(2H)-one], for which the IC50 amounted to 3.1 nM.

Consider `C=CCn1c(=O)c2cnc(Nc3ccc(N4CCC5(CCN(C)CC5)CC4)cc3)nc2n1-c1cccc(OC2CC2)n1` [Embodiment 50, 2-allyl-1-(6-cyclopropoxypyridin-2-yl)-6-((4-(9-methyl-3,9-diazaspiro[5.5]undecan-3-yl)phenyl)amino)-1H-pyrazolo[3,4-d]pyrimidin-3(2H)-one], for which the IC50 worked out at 2.5 nM.

With `C=CCn1c(=O)c2cnc(Nc3ccc(N4CCC5(CCN(C)CC5)CC4)cc3)nc2n1-c1cccc(OCC)n1` [Embodiment 51, 2-allyl-1-(6-ethoxypyridin-2-yl)-6-((4-(9-methyl-3,9-diazaspiro[5.5]undecan-3-yl)phenyl)amino)-1H-pyrazolo[3,4-d]pyrimidin-3(2H)-one], the IC50 came out at 2.8 nM.

`C=CCn1c(=O)c2cnc(Nc3ccc(N4CCC5(CCN(C)CC5)CC4)cc3)nc2n1-c1cccc(O[C@@H]2CCOC2)n1` [Embodiment 52, (R)-2-allyl-6-((4(9-methyl-3,9-diazaspiro[5.5]undecan-3-yl)phenyl)amino)-1-(6-((tetrahydrofuran-3-yl)oxy)pyridin-2-yl)-1H-pyrazolo[3,4-d]pyrimidin-3(2H)-one] yielded an IC50 of 71 nM.

For the molecule `C=CCn1c(=O)c2cnc(Nc3ccc(N4CCC5(CCN(C)CC5)CC4)cc3)nc2n1-c1cccc(OC2COC2)n1` [Embodiment 53, 2-allyl-6-((4(9-methyl-3,9-diazaspiro[5.5]undecan-3-yl)phenyl)amino)-1-(6-(oxetan-3-yloxy)pyridin-2-yl)-1H-pyrazolo[3,4-d]pyrimidin-3(2H)-one], the IC50 was found to be 63 nM.

As for `C=CCn1c(=O)c2cnc(Nc3ccc(N4CCC5(CCN(C)CC5)CC4)cc3)nc2n1-c1cccc(OC2CCC2)n1` [Embodiment 54, 2-allyl-1-(6-cyclobutoxypyridin-2-yl)-6-((4-(9-methyl-3,9-diazaspiro[5.5]undecan-3-yl)phenyl)amino)-1H-pyrazolo[3,4-d]pyrimidin-3(2H)-one], the IC50 amounted to 57 nM.

`C=CCn1c(=O)c2cnc(Nc3ccc(N4CCC5(CCN(C)CC5)CC4)cc3)nc2n1-c1cccc(O[C@H]2CCOC2)n1` [Embodiment 55, (S)-2-allyl-6-((4(9-methyl-3,9-diazaspiro[5.5]undecan-3-yl)phenyl)amino)-1-(6-((tetrahydrofuran-3-yl)oxy)pyridin-2-yl)-1H-pyrazolo[3,4-d]pyrimidin-3(2H)-one] returned an IC50 of 90 nM.

As for `C=CCn1c(=O)c2cnc(Nc3ccc(N4CCC5(CCN(C)CC5)CC4)cc3)nc2n1-c1cccc(N2CCN(C)C2=O)n1` [Embodiment 56], the IC50 came to 74 nM.

`C=CCn1c(=O)c2cnc(Nc3ccc(N4CCC5(CCN(C)CC5)CC4)cc3)nc2n1-c1cccc(N2CCOC2=O)n1` [Embodiment 57, 3-(6-(2-allyl-6((4-(9-methyl-3,9-diazaspiro[5.5]undecan-3-yl)phenyl)amino)-3-oxo-2,3-dihydro-1H-pyrazolo[3,4-d]pyrimidin-1-yl)pyridin-2-yl)oxazolidin-2one] registered an IC50 of 47 nM.
